Test results published in patent US20020031795A1, “Nitrocoumarins for detecting all micro-organisms” (priority 1998, published 2002).

Assays:
[1] = tested on: E. coli (NCTC strain 10418); experiment: Fluorescent signal generated by E. coli reducing nitrocoumarins (nitroaryl reductase activity); assay type: cell-based, Escherichia coli
Protocol: A sample of the 7-nitrocoumarin derivative is dissolved in 4 ml of hot, distilled water. The mass dissolved to make the stock solution is such that the final concentration of the compound in the assay is 0.105 mmol/l. This solution is added to 96 ml of Mueller-Hinton broth and the mixture is sterile-filtered.
(§1) The E. coli was grown for 24 hours at 35° C. on Columbia agar supplemented with sheep blood. The bacteria were then resuspended in sterile, distilled water and their density was adjusted to 0.5 on the MacFarland scale (i.e. about 10^8 cells/ml). This suspension was then diluted 100-fold in sterile Mueller-Hinton broth (i.e. to a final density of about 10^6 cells/ml).
(§2) Fifty microliters of each nitrocoumarin solution plus 50 μl of bacterial suspension were then added to the wells of a microtiter plate. The plates were incubated at 35° C. and the optical density and fluorescence of each well was read every 30 min for a total of 4 hours. Optical density (690 nm) readings were made using an Anthos 2001 spectrophotometer (Labtech International Limited), and fluorescence (excitation at 365 nm and emission at 440 nm) readings were made on a Biolite F1 2001 fluorometer (Labtech International Limited).
The effect of the concentration of 7-nitrocoumarin-3-carboxylic acid on the sensitivity of the assay to detect E. coli (NCTC strain 10418) was investigated at concentrations of the indicator ranging from 0 to 0.262 mmol/l. All other conditions were identical to those described in section A above.

Citrobacter diversus = experiment: Growth of wild Enterobacteriaceae strain in Mueller-Hinton broth (optical density); assay type: cell-based; conditions: 0.17 mmol/l
Protocol: as §1, §2
(§3) This experiment was designed to investigate whether or not it would be possible to detect Enterobacteriaceae other than E. coli using 7-nitrocoumarin-3-carboxylic acid. The conditions for this experiment were similar to those described for the first experiment (section A).
(§4) Five wild strains belonging to the species Citrobacter diversus, Enterobacter agglomerans, Hafnia alvei, Morganella morganii and Shigella sonnei were tested

Morganella morganii = experiment: as above; assay type: cell-based; conditions: 0.17 mmol/l
Protocol: as §1, §2, §3, §4

Hafnia alvei = experiment: as above; assay type: cell-based; conditions: 0.17 mmol/l
Protocol: as §1, §2, §3, §4

Enterobacter agglomerans = experiment: as above; assay type: cell-based; conditions: 0.17 mmol/l
Protocol: as §1, §2, §3, §4

Shigella sonnei = experiment: as above; assay type: cell-based; conditions: 0.17 mmol/l
Protocol: as §1, §2, §3, §4

Q: What does the source list for `O=C(O)c1cc2ccc([N+](=O)[O-])cc2oc1=O` [7-nitrocoumarin-3-carboxylic acid]?
A: Fluorescent signal ([1]; 0.005 mmol/l, 0 min): 0; Fluorescent signal ([1]; 0.005 mmol/l, 30 min): −134; Fluorescent signal ([1]; 0.005 mmol/l, 60 min): −164; Fluorescent signal ([1]; 0.005 mmol/l, 90 min): −122; Fluorescent signal ([1]; 0.005 mmol/l, 120 min): −94; Fluorescent signal ([1]; 0.005 mmol/l, 150 min): −9; Fluorescent signal ([1]; 0.005 mmol/l, 180 min): 406; Fluorescent signal ([1]; 0.005 mmol/l, 210 min): 1307; Fluorescent signal ([1]; 0.005 mmol/l, 240 min): 2466; Fluorescent signal ([1]; 0.013 mmol/l, 0 min): 0; Fluorescent signal ([1]; 0.013 mmol/l, 30 min): −113; Fluorescent signal ([1]; 0.013 mmol/l, 60 min): −141; Fluorescent signal ([1]; 0.013 mmol/l, 90 min): −76; Fluorescent signal ([1]; 0.013 mmol/l, 120 min): −22; Fluorescent signal ([1]; 0.013 mmol/l, 150 min): 174; Fluorescent signal ([1]; 0.013 mmol/l, 180 min): 1068; Fluorescent signal ([1]; 0.013 mmol/l, 210 min): 3073; Fluorescent signal ([1]; 0.013 mmol/l, 240 min): 5902; Fluorescent signal ([1]; 0.026 mmol/l, 0 min): 0; Fluorescent signal ([1]; 0.026 mmol/l, 30 min): −91; Fluorescent signal ([1]; 0.026 mmol/l, 60 min): −110; Fluorescent signal ([1]; 0.026 mmol/l, 90 min): −39; Fluorescent signal ([1]; 0.026 mmol/l, 120 min): 71; Fluorescent signal ([1]; 0.026 mmol/l, 150 min): 467; Fluorescent signal ([1]; 0.026 mmol/l, 180 min): 2311; Fluorescent signal ([1]; 0.026 mmol/l, 210 min): 6028; Fluorescent signal ([1]; 0.026 mmol/l, 240 min): 11387; Fluorescent signal ([1]; 0.052 mmol/l, 0 min): 0; Fluorescent signal ([1]; 0.052 mmol/l, 30 min): −83; Fluorescent signal ([1]; 0.052 mmol/l, 60 min): −76; Fluorescent signal ([1]; 0.052 mmol/l, 90 min): 33; Fluorescent signal ([1]; 0.052 mmol/l, 120 min): 241; Fluorescent signal ([1]; 0.052 mmol/l, 150 min): 861; Fluorescent signal ([1]; 0.052 mmol/l, 180 min): 4004; Fluorescent signal ([1]; 0.052 mmol/l, 210 min): 10584; Fluorescent signal ([1]; 0.052 mmol/l, 240 min): 19530; Fluorescent signal relative to that given by any of the other substrates ([1]; 0.105 mmol/l): more than twice as high; Fluorescent signal ([1]; 0.105 mmol/l, 0 min): 0; Fluorescent signal ([1]; 0.105 mmol/l, 30 min): −67; Fluorescent signal ([1]; 0.105 mmol/l, 60 min): 4; Fluorescent signal ([1]; 0.105 mmol/l, 90 min): 181; Fluorescent signal ([1]; 0.105 mmol/l, 120 min): 586; Fluorescent signal ([1]; 0.105 mmol/l, 150 min): 1694; Fluorescent signal ([1]; 0.105 mmol/l, 180 min): 6724; Fluorescent signal ([1]; 0.105 mmol/l, 210 min): 17495; Fluorescent signal ([1]; 0.105 mmol/l, 240 min): 31314; Extent of reduction of the substrate (in words) ([1]; 0.105 mmol/l, end of the four-hour assay): reduced to a far greater extent than any of the other nitrocoumarins; Fluorescent signal ([1]; 0.157 mmol/l, 0 min): 0; Fluorescent signal ([1]; 0.157 mmol/l, 30 min): −74; Fluorescent signal ([1]; 0.157 mmol/l, 60 min): 48; Fluorescent signal ([1]; 0.157 mmol/l, 90 min): 280; Fluorescent signal ([1]; 0.157 mmol/l, 120 min): 811; Fluorescent signal ([1]; 0.157 mmol/l, 150 min): 2231; Fluorescent signal ([1]; 0.157 mmol/l, 180 min): 8264; Fluorescent signal ([1]; 0.157 mmol/l, 210 min): 21022; Fluorescent signal ([1]; 0.157 mmol/l, 240 min): 36517; Fluorescent signal ([1]; 0.210 mmol/l, 0 min): 0; Fluorescent signal ([1]; 0.210 mmol/l, 30 min): −6; Fluorescent signal ([1]; 0.210 mmol/l, 60 min): 88; Fluorescent signal ([1]; 0.210 mmol/l, 90 min): 354; Fluorescent signal ([1]; 0.210 mmol/l, 120 min): 979; Fluorescent signal ([1]; 0.210 mmol/l, 150 min): 2588; Fluorescent signal ([1]; 0.210 mmol/l, 180 min): 9000; Fluorescent signal ([1]; 0.210 mmol/l, 210 min): 21589; Fluorescent signal ([1]; 0.210 mmol/l, 240 min): 37823; Fluorescent signal ([1]; 0.262 mmol/l, 0 min): 0; Fluorescent signal ([1]; 0.262 mmol/l, 30 min): 3; Fluorescent signal ([1]; 0.262 mmol/l, 60 min): 131; Fluorescent signal ([1]; 0.262 mmol/l, 90 min): 446; Fluorescent signal ([1]; 0.262 mmol/l, 120 min): 1190; Fluorescent signal ([1]; 0.262 mmol/l, 150 min): 3037; Fluorescent signal ([1]; 0.262 mmol/l, 180 min): 9721; Fluorescent signal ([1]; 0.262 mmol/l, 210 min): 22066; Fluorescent signal ([1]; 0.262 mmol/l, 240 min): 37949; Optical density (690 nm) (Citrobacter diversus; 0 min): 0.000; Optical density (690 nm) (Citrobacter diversus; 30 min): 0.000; Optical density (690 nm) (Citrobacter diversus; 60 min): 0.005; Optical density (690 nm) (Citrobacter diversus; 90 min): 0.011; Optical density (690 nm) (Citrobacter diversus; 120 min): 0.020; Optical density (690 nm) (Citrobacter diversus; 150 min): 0.050; Optical density (690 nm) (Citrobacter diversus; 180 min): 0.092; Optical density (690 nm) (Citrobacter diversus; 210 min): 0.143; Optical density (690 nm) (Citrobacter diversus; 240 min): 0.250; Optical density (690 nm) (Morganella morganii; 0 min): 0.000; Optical density (690 nm) (Morganella morganii; 30 min): −0.010; Optical density (690 nm) (Morganella morganii; 60 min): −0.010; Optical density (690 nm) (Morganella morganii; 90 min): −0.005; Optical density (690 nm) (Morganella morganii; 120 min): 0.003; Optical density (690 nm) (Morganella morganii; 150 min): 0.020; Optical density (690 nm) (Morganella morganii; 180 min): 0.064; Optical density (690 nm) (Morganella morganii; 210 min): 0.116; Optical density (690 nm) (Morganella morganii; 240 min): 0.187; Optical density (690 nm) (Hafnia alvei; 0 min): 0.000; Optical density (690 nm) (Hafnia alvei; 30 min): −0.001; Optical density (690 nm) (Hafnia alvei; 60 min): 0.004; Optical density (690 nm) (Hafnia alvei; 90 min): 0.009; Optical density (690 nm) (Hafnia alvei; 120 min): 0.016; Optical density (690 nm) (Hafnia alvei; 150 min): 0.034; Optical density (690 nm) (Hafnia alvei; 180 min): 0.092; Optical density (690 nm) (Hafnia alvei; 210 min): 0.149; Optical density (690 nm) (Hafnia alvei; 240 min): 0.246; Optical density (690 nm) (Enterobacter agglomerans; 0 min): 0.000; Optical density (690 nm) (Enterobacter agglomerans; 30 min): −0.002; Optical density (690 nm) (Enterobacter agglomerans; 60 min): 0.002; Optical density (690 nm) (Enterobacter agglomerans; 90 min): 0.006; Optical density (690 nm) (Enterobacter agglomerans; 120 min): 0.027; Optical density (690 nm) (Enterobacter agglomerans; 150 min): 0.057; Optical density (690 nm) (Enterobacter agglomerans; 180 min): 0.155; Optical density (690 nm) (Enterobacter agglomerans; 210 min): 0.225; Optical density (690 nm) (Enterobacter agglomerans; 240 min): 0.323; Optical density (690 nm) (Shigella sonnei; 0 min): 0.000; Optical density (690 nm) (Shigella sonnei; 30 min): −0.001; Optical density (690 nm) (Shigella sonnei; 60 min): 0.000; Optical density (690 nm) (Shigella sonnei; 90 min): 0.002; Optical density (690 nm) (Shigella sonnei; 120 min): 0.013; Optical density (690 nm) (Shigella sonnei; 150 min): 0.042; Optical density (690 nm) (Shigella sonnei; 180 min): 0.097; Optical density (690 nm) (Shigella sonnei; 210 min): 0.159; Optical density (690 nm) (Shigella sonnei; 240 min): 0.246
